Laboratory results published in ChEMBL document CHEMBL4819053, “Alkyne-Bridged α-Conotoxin Vc1.1 Potently Reverses Mechanical Allodynia in Neuropathic Pain Models” (J Med Chem, 2021).
The source made the active and inactive calls.

Test system: Rattus norvegicus
Assay: Antiallodynic activity in Sprague-Dawley rat model of neuropathic mechanical allodynia assessed as increase in paw withdrawal threshold at 100 mg/kg, po measured at 2 to 6 hrs post last dose by von Frey test
Format: functional, organism-based
Conditions: time 2-6 hrs

NCC1(CC(=O)O)CCCCC1
Activity: Active
